Laboratory results: publication PMC11189555, “Aryl amino acetamides prevent Plasmodium falciparum ring development via targeting the lipid-transfer protein PfSTART1” (Nature Communications, 2024)
Several values for one entry are separate records, joined by “and”; a condition that tells them apart may be missing. Identical values can stand only once.

Tested on: 3D7 P. falciparum parasites
Assay: Growth inhibition assay (72 h, LDH activity)
Type: cell-based, Plasmodium falciparum
Conditions: for NORMALISED (growth inhibition, LDH absorbance vs DMSO and uRBC): 3D7, 0 mM GlcN; for NORMALISED (growth inhibition, LDH absorbance) / (av-uRBC) / (DMSO-uRBC) x100: 3D7
Procedure, shortened: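 Synchronised ring-stage P. falciparum (0.3-0.6% parasitemia, 2% haematocrit) grown 72 h in serial compound dilutions, sometimes with 0, 0.25 or 2.5 mM glucosamine. Growth read as LDH activity (Malstat/NBT, A650) after freeze-thaw, normalised to DMSO and uninfected RBC. EC50 by nonlinear regression.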

CC(C)(Nc1ccc(Cl)c(S(=O)(=O)N2CCOCC2)c1)C(=O)Nc1ccc(F)c(Cl)c1 [W-991]
NORMALISED (growth inhibition, LDH absorbance vs DMSO and uRBC) (W991 at 0.137174 nM): 9.0099 and 4.6722
NORMALISED (growth inhibition, LDH absorbance vs DMSO and uRBC) (W991 at 0.411523 nM): 30.495 and 19.7030
NORMALISED (growth inhibition, LDH absorbance vs DMSO and uRBC) (W991 at 1.23457 nM): 67.3267 and 60.8717
NORMALISED (growth inhibition, LDH absorbance vs DMSO and uRBC) (W991 at 3.7037 nM): 88.9109 and 93.8187
NORMALISED (growth inhibition, LDH absorbance vs DMSO and uRBC) (W991 at 11.1111 nM): 90.3465 and 96.7162
NORMALISED (growth inhibition, LDH absorbance vs DMSO and uRBC) (W991 at 33.3333 nM): 89.8515 and 96.9697
NORMALISED (growth inhibition, LDH absorbance vs DMSO and uRBC) (W991 at 100 nM): 92.3267 and 97.2232
NORMALISED (growth inhibition, LDH absorbance) (0.25 mM GlcN, dilution point 1 of 10, starting concentration 100 nM): 97.1868
NORMALISED (growth inhibition, LDH absorbance) (0.25 mM GlcN, dilution point 2 of 10 from starting concentration 100 nM): 96.6100
NORMALISED (growth inhibition, LDH absorbance) (0.25 mM GlcN, dilution point 3 of 10 from starting concentration 100 nM): 96.4481
NORMALISED (growth inhibition, LDH absorbance) (0.25 mM GlcN, dilution point 4 of 10 from starting concentration 100 nM): 92.3801
NORMALISED (growth inhibition, LDH absorbance) (0.25 mM GlcN, dilution point 5 of 10 from starting concentration 100 nM): 74.4235 and 44.8087
NORMALISED (growth inhibition, LDH absorbance) (2.5 mM GlcN, dilution point 1 of 10, starting concentration 100 nM): 96.9212
NORMALISED (growth inhibition, LDH absorbance) (2.5 mM GlcN, dilution point 2 of 10 from starting concentration 100 nM): 96.2021
NORMALISED (growth inhibition, LDH absorbance) (2.5 mM GlcN, dilution point 3 of 10 from starting concentration 100 nM): 95.7667
NORMALISED (growth inhibition, LDH absorbance) (2.5 mM GlcN, dilution point 4 of 10 from starting concentration 100 nM): 92.5258
NORMALISED (growth inhibition, LDH absorbance) (2.5 mM GlcN, dilution point 5 of 10 from starting concentration 100 nM): 58.1932
NORMALISED (growth inhibition, LDH absorbance) (2.5 mM GlcN, dilution point 6 of 10 from starting concentration 100 nM): 27.2129
NORMALISED (growth inhibition, LDH absorbance) (2.5 mM GlcN, dilution point 8 of 10 from starting concentration 100 nM): 5.32 and 8.1730
(av-uRBC) / (DMSO-uRBC) x100 (conc. 0.0762079 nM, Biological replicate 1 (2021-10-25)): 91.3585
(av-uRBC) / (DMSO-uRBC) x100 (conc. 0.0762079 nM, Biological replicate 2 (2021-11-03)): 90.9909
(av-uRBC) / (DMSO-uRBC) x100 (conc. 0.0762079 nM, Biological replicate 3 (2021-11-11)): 91.0985
(av-uRBC) / (DMSO-uRBC) x100 (conc. 0.228624 nM, Biological replicate 1 (2021-10-25)): 79.3619
(av-uRBC) / (DMSO-uRBC) x100 (conc. 0.228624 nM, Biological replicate 2 (2021-11-03)): 81.2617
(av-uRBC) / (DMSO-uRBC) x100 (conc. 0.228624 nM, Biological replicate 3 (2021-11-11)): 73.154
(av-uRBC) / (DMSO-uRBC) x100 (conc. 0.685871 nM, Biological replicate 1 (2021-10-25)): 42.85
(av-uRBC) / (DMSO-uRBC) x100 (conc. 0.685871 nM, Biological replicate 2 (2021-11-03)): 72.8867
(av-uRBC) / (DMSO-uRBC) x100 (conc. 0.685871 nM, Biological replicate 3 (2021-11-11)): 42.2112
(av-uRBC) / (DMSO-uRBC) x100 (conc. 2.05761 nM, Biological replicate 1 (2021-10-25)): 12.3757
(av-uRBC) / (DMSO-uRBC) x100 (conc. 2.05761 nM, Biological replicate 2 (2021-11-03)): 18.386
(av-uRBC) / (DMSO-uRBC) x100 (conc. 2.05761 nM, Biological replicate 3 (2021-11-11)): 9.397
(av-uRBC) / (DMSO-uRBC) x100 (conc. 6.17284 nM, Biological replicate 1 (2021-10-25)): 9.357
(av-uRBC) / (DMSO-uRBC) x100 (conc. 6.17284 nM, Biological replicate 2 (2021-11-03)): 11.686
(av-uRBC) / (DMSO-uRBC) x100 (conc. 6.17284 nM, Biological replicate 3 (2021-11-11)): 6.494
(av-uRBC) / (DMSO-uRBC) x100 (conc. 18.5185 nM, Biological replicate 1 (2021-10-25)): 9.8
(av-uRBC) / (DMSO-uRBC) x100 (conc. 18.5185 nM, Biological replicate 2 (2021-11-03)): 10.8954
(av-uRBC) / (DMSO-uRBC) x100 (conc. 18.5185 nM, Biological replicate 3 (2021-11-11)): 6.2108
(av-uRBC) / (DMSO-uRBC) x100 (conc. 55.5556 nM, Biological replicate 1 (2021-10-25)): 9.035
(av-uRBC) / (DMSO-uRBC) x100 (conc. 55.5556 nM, Biological replicate 2 (2021-11-03)): 11.005
(av-uRBC) / (DMSO-uRBC) x100 (conc. 55.5556 nM, Biological replicate 3 (2021-11-11)): 5.108
(av-uRBC) / (DMSO-uRBC) x100 (conc. 166.667 nM, Biological replicate 1 (2021-10-25)): 9.2782
(av-uRBC) / (DMSO-uRBC) x100 (conc. 166.667 nM, Biological replicate 2 (2021-11-03)): 9.854
(av-uRBC) / (DMSO-uRBC) x100 (conc. 166.667 nM, Biological replicate 3 (2021-11-11)): 4.764
(av-uRBC) / (DMSO-uRBC) x100 (conc. 500 nM, Biological replicate 1 (2021-10-25)): 10.7733
(av-uRBC) / (DMSO-uRBC) x100 (conc. 500 nM, Biological replicate 2 (2021-11-03)): 10.7389
(av-uRBC) / (DMSO-uRBC) x100 (conc. 500 nM, Biological replicate 3 (2021-11-11)): 3.985
improvement in parasite activity on replacing the aryl oxy of compound 3 with an amino group (EC50 based): 20 fold
